Results published in patent publication US20230091225A1, “Bifunctional chimeric heterocyclic compounds for targeted degradation of androgen receptors and use thereof” (HINOVA PHARMACEUTICALS INC., priority 2019, published 2023).
Like-named read-outs stand apart in the source and are kept apart here.

Target: T1, androgen receptor (AR) (Homo sapiens, UniProt P10275)
T1 sequence (P10275 1-920): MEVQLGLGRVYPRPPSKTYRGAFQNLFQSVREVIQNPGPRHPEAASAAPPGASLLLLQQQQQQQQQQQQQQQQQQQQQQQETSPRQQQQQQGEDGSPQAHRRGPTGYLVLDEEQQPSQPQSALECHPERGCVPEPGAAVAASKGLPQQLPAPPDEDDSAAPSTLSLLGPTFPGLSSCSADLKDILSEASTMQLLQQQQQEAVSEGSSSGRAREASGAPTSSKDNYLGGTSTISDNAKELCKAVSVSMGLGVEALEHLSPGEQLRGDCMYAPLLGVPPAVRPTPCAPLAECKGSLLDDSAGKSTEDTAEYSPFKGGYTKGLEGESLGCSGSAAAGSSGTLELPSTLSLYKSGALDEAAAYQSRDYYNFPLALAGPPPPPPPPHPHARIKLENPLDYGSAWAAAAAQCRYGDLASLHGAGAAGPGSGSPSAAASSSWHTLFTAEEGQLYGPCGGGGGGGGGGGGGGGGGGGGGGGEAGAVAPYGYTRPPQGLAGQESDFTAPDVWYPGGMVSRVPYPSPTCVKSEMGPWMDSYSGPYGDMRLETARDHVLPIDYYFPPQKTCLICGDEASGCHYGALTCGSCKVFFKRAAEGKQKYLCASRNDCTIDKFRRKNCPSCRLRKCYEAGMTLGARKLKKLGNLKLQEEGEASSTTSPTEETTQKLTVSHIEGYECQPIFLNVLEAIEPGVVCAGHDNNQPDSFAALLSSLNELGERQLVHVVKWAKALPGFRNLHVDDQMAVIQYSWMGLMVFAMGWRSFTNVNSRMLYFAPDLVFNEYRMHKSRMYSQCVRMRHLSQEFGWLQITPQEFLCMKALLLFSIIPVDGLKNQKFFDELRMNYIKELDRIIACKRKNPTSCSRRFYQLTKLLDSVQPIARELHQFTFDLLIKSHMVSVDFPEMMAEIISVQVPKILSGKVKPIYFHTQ
Assay: Degradation of androgen receptor (AR) protein in VCaP cells by ELISA
Assay type: cell-based
Conditions: for Dmax: VCaP

[1] = AR degradation, VCaP cells, 16 h, ELISA, Table 3-1, read-out: DC50
[2] = AR degradation, VCaP cells, 16 h, ELISA, Table 3-2, read-out: DC50
[3] = AR degradation, VCaP cells, 16 h, ELISA, Table 3-2, read-out: Dmax (%)

Compound: CC1(C)C(Oc2ccc(C#N)c(Cl)c2)C(C)(C)C1N1Cc2nc(C#CC3CCC(N4CC5CN(c6ccc7c(c6)C(=O)N([C@@H]6CCC(=O)NC6=O)C7=O)CC5C4)CC3)ccc2C1=O (some centres unmarked) [Compound 349, 2-Chloro-4-((1r,3r)-3-(2-((4-(5-(2-(2,6-dioxopiperidin-3-yl)-1,3-dioxoisoindolin-5-yl)hexahydropyrrolo[3,4-c]pyrrol-2(1H)-yl)cyclohexyl)ethynyl)-5-oxo-5,7-dihydro-6H-pyrrolo[3,4-b]pyridin-6-yl)-2,2,4,4-tetramethylcyclobutoxy)benzonitrile]
- Dmax (%) (AR degradation, VCaP cells, 16 h, ELISA, Table 3-1): ++++ (>80%)
- DC50 (read-out: DC50): 10 to 100 nM

Compound: N-((1r,4r)-4-(3-chloro-4-cyanophenoxy)cyclohexyl)-6-(2-((1-(2,6-dioxopiperidin-3-yl)-6-fluoro-1,3-dioxoisoindolin-5-yl)piperidine-4-yl)methyl)-2,7-diazaspiro[(3.5]nonan-7-yl)-N-(methyl-d3)pyridazine-3-formamide [Compound 91]
- Dmax (%): + (key: ++++: >80%; +++: 80%-60%; ++: 60%-40%; +: <40%)
- DC50 (read-out: DC50): > 300 nM

Compound: N#Cc1ccc(O[C@H]2CC[C@H](NC(=O)c3cnn([C@H]4CC[C@H](CN5CCC6(CC5)CN(c5cc7c(cc5F)C(=O)N(C5CCC(=O)NC5=O)C7=O)C6)CC4)c3)CC2)cc1Cl (some centres unmarked) [Compound 246]
- DC50 [1]: 10 to 100 nM
- Dmax: 60 to 80%

Compound: N#Cc1ccc(O[C@H]2CC[C@H](NC(=O)c3ccc(N4CCC(CN5CC6(C5)CN(c5ccc7c(c5)C(=O)N(C5CCC(=O)NC5=O)C7=O)C6)CC4)nn3)CC2)cc1Cl (some centres unmarked) [Compound 121, N-((1r,4r)-4-(3-chloro-4-cyanophenoxy)cyclohexyl)-6-(4-((6-(2-(2,6-dioxopiperidin-3-yl)-1,3-dioxoisoindolin-5-yl)-2,6-diazaspiro[3.3]heptan-2-yl)methyl)piperidin-1-yl)pyridazine-3-amide]
- DC50: < 10 nM
- Dmax: > 80%

Compound: CC1(C)[C@H](Oc2ccc(C#N)c(Cl)c2)C(C)(C)[C@H]1N1Cc2nc(C#C[C@H]3C[C@H](N4CCN(c5cc(=O)n(C6CCC(=O)NC6=O)cn5)CC4)C3)ccc2C1=O (some centres unmarked) [Compound 395]
- DC50 [2]: 100 to 300 nM
- Dmax [3]: 40 to 60%

Compound: CC1(C)[C@H](Oc2ccc(C#N)c(Cl)c2)C(C)(C)[C@H]1N1Cc2nc(C#CC3CC(N4CC5CN(c6cc7c(cc6F)C(=O)N(C6CCC(=O)NC6=O)C7=O)CC5C4)C3)ccc2C1=O (some centres unmarked) [Compound 361, 2-Chloro-4-((1r,3r)-3-(2-((3-(5-(2,6-dioxopiperidin-3-yl)-6-fluoro-1,3-dioxoisoindolin-5-yl)hexahydropyrrolo[3,4-c]pyrrol-2(1H)-cyclobutyl)ethynyl)-5-oxo-5,7-dihydro-6H-pyrrolo[3,4-b]pyridin-6-yl)-2,2,4,4-tetramethylcyclobutoxy) benzonitrile]
- DC50 [1]: 10 to 100 nM

Compound: CC1(C)[C@H](Oc2ccc(C#N)c(Cl)c2)C(C)(C)[C@H]1N1Cc2nc(C#CC3CC(N4CC5CN(c6ccc7c(c6)C(=O)N(C6CCC(=O)NC6=O)C7=O)CC5C4)C3)ccc2C1=O (some centres unmarked) [Compound 358, 2-chloro-4-((1r,3r)-3-(2-((3-(5-(2-(2,6-dioxopiperidin-3-yl)-1,3-dioxoisoindolin-5-yl)hexahydropyrrolo[3,4-c]pyrrol-2(1H)-yl)cyclobutyl)ethynyl)-5-oxo-5,7-dihydro-6H-pyrrolo[3,4-b]pyridin-6-yl)-2,2,4,4-tetramethylcyclobutoxy)benzonitrile]
- DC50 [1]: 10 to 100 nM
- Dmax (AR degradation, VCaP cells, 16 h, ELISA, Table 3-1, read-out: Dmax (%)): 60 to 80%

Compound: [2H]C([2H])([2H])N(C(=O)c1ccc(N2CCC(CN3CCN(c4cc5c(cc4F)C(=O)N(C4CCC(=O)NC4=O)C5=O)CC3)CC2)nn1)[C@H]1CC[C@H](Oc2ccc(C#N)c(Cl)c2)CC1 (some centres unmarked) [Compound 133, N-((1r,4r)-4-(3-chloro-4-cyanophenoxy)cyclohexyl)-6-(4-((4-(2-(2,6-dioxopiperidin-3-yl)-6-fluoro-1,3-dioxoisoindolin-5-yl)piperazin-1-yl)methyl)piperidin-1-yl)-N-deuteromethyl-pyridazine-3-amide]
- DC50: > 300 nM
- Dmax: < 40%

Compound: CC1(C)[C@H](Oc2ccc(C#N)c(Cl)c2)C(C)(C)[C@H]1N1Cc2nc(C#C[C@H]3C[C@H](N4CCN(c5cc6c(cc5F)C(=O)N(C5CCC(=O)NC5=O)C6=O)CC4)C3)cnc2C1=O (some centres unmarked) [Compound 391]
- DC50 [2]: 100 to 300 nM
- Dmax [3]: > 80%
